Measured values as given in US12435087B2, “Modulators of DCN-1 and methods of use thereof” (Cellarity, Inc., priority 2023, dated 2025).
pIC50: −log10 of the molar value. Like-named read-outs stand apart in the source and are kept apart here.

How the values were obtained:
[1] = target: DCN1 (DCUND1) protein PONY domain (Homo sapiens (Human), UniProt Q96GG9); assay: TR-FRET assay (binding to DCN-1, displacement of FAM-labeled probe); details: for IC50: TR FRET IC50 1 hr (nM)
Method in brief: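 Compounds read at 1, 5 and 24 h, 0.1% final DMSO, by TR-FRET between terbium-streptavidin on biotinylated DCN1 PONY domain (E. coli) and a FAM-tagged non-covalent inhibitor probe. Two setups used, 5 nM protein with 20 nM labelled probe, or 0.31 nM protein with 100 nM labelled plus 800 nM unlabelled probe; buffer had TritonX and 200 mM NaCl. % activity relative to high (with probe) and low (without probe) controls.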

DCN1 protein = DCN1 protein (Homo sapiens (Human), UniProt Q96GG9); assay: Intact protein MS analysis with the RapidFire-TOF system (covalent adduct formation); format: binding; details: 400 nM DCN1, incubated at room temperature for 3 hours
Sequence of DCN1 protein (Q96GG9 whole entry): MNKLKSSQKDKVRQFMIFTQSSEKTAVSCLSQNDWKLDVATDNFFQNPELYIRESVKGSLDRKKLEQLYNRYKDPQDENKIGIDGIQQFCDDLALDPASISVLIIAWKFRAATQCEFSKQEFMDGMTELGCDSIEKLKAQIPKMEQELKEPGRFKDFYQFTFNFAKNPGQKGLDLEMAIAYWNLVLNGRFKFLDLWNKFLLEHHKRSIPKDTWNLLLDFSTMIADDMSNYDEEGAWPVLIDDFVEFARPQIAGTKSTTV
Procedure: (§1) DCN1 protein, His-TEV-DCN1, were expressed in E. Coli. The His-tagged protein was first purified with an Ni-NTA column. The His-tag was cleaved using His-tag TEV protease and the His-tags were removed using a second Ni-NTA column. Protein purity was verified with SDS-PAGE and intact MS. DCN1 was dissolved in a buffer containing 25 mM Tris-HCl, 200 mM NaCl, and 1 mM DTT at 400 nM. 11 concentrations of compounds were added to the DCN1 solution and incubated at room temperature for 3 hours, unless otherwise specified. The reaction plates were quenched by adding 0.2% formic acid. Quenched assay plates were analyzed with an Agilent RapidFire 360 system connected to an Agilent 6545 Q-TOF mass spectrometer equipped with an AJS source. 10 μL of sample volume was loaded onto a custom packed cartridge (4 μL, PLRP-S 30 μm/1000 Å pore; Optimize Technologies) with loading buffer (ddH2O with 0.09% (vol/vol) formic acid and 0.01% (vol/vol) trifluoroacetic acid; 1.25 ml/min) for 6 seconds before being eluted directly into the mass spectrometer in elution buffer (80% acetonitrile with 0.09% (vol/vol) formic acid and 0.01% (vol/vol) trifluoroacetic acid; 0.5 ml/min) for 7 seconds. The cartridge was re-equilibrated with loading buffer for 1 second before collection of the next sample. The Q-TOF was operated in TOF-only positive ionization mode set to the following parameters: Gas Temp=350 C, Drying Gas=7 l/min, Nebulizer=50 psi, Sheath Gas Temp=400 C, Sheath Gas Flow=12 l/min, VCap=4000 V, Nozzle Voltage=1000 V, Fragmentor=125 V, Skimmer=65 V and Oct 1 RF Vpp=750V. Raw MS data files were deconvoluted and analyzed using the Agilent MassHunter Bioconfirm software package to identify both parent protein and expected compound adduct mass signatures.
An MS assay was performed to evaluate the ability of the compounds to covalently modify DCN-1.
as §1, with “Vcap=4000” for “VCap=4000”

[2] = 24 hr after treatment with compound, read-out: TR FRET IC50 24 hr
[3] = read-out: TR FRET IC50 1 hr, 1 hr after treatment with compound
[4] = 1 hr after treatment with compound

Sequence of DCN1 (DCUND1) protein PONY domain (Q96GG9 60-248): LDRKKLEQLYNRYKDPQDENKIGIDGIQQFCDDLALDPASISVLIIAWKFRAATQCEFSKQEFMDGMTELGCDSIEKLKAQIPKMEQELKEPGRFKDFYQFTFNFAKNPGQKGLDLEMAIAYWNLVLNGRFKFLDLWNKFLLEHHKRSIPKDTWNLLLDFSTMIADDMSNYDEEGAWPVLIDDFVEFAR

CCN1C(=O)[C@@H](NC(=O)c2cccc(C(F)(F)F)c2)[C@@H](c2cccc(NC(=O)[C@H](C)Cl)c2)c2c(C)nn(-c3ccccc3)c21 (mixture of isomers) [Compound I-16]
pIC50 [1, 2]: < 5.52
pIC50 [1, 3]: < 5.52
Emax (DCN1 protein): 0 to 30%

CCN1C(=O)[C@@H](NC(=O)c2cccc(C(F)(F)F)c2)[C@@H](c2cccc(NC(=O)[C@H](F)Cl)c2)c2c(C)nn(-c3ccccc3)c21 (mixture of isomers) [Compound I-18]
pIC50 [1, 2]: < 5.52
IC50 [1, 4]: > 3000 nM
Emax (DCN1 protein): 0 to 30%

CCN1C(=O)[C@H](NC(=O)c2cccc(C(F)(F)F)c2)[C@@H](c2ccccc2NC(=O)[C@H](C)Br)c2cnn(-c3ccccc3)c21 (mixture of isomers) [Compound I-72]
pIC50 [1, 2]: 6.00 to 6.70
IC50 [1, 4]: 1000 to 3000 nM
Emax (DCN1 protein): 80 to 100%

CCN1C(=O)[C@H](NC(=O)c2cccc(C(F)(F)F)c2)[C@@H](c2cccc(NC(=O)[C@H](F)Cl)c2)c2c(C)nn(-c3ccccc3)c21 (mixture of isomers) [Compound I-150]
pIC50 [1, 2]: 6.00 to 6.70
IC50 [1, 4]: 1000 to 3000 nM
Emax (DCN1 protein): 80 to 100%

C=C(CN1CCOCC1)C(=O)Nc1cccc([C@H]2c3c(C)nn(-c4ccccc4)c3N(CC)C(=O)[C@@H]2NC(=O)c2cccc(C(F)(F)F)c2)c1 (racemic) [Compound I-9, N-[rac-(4S,5R)-7-ethyl-3-methyl-4-[3-[2-(morpholinomethyl)prop-2-enoylamino]phenyl]-6-oxo-1-phenyl-4,5-dihydropyrazolo[3,4-b]pyridin-5-yl]-3-(trifluoromethyl)benzamide]
pIC50 [1, 2]: ≥ 6.70
IC50 [1, 4]: ≤ 200 nM
Emax (DCN1 protein): 80 to 100%

C=C(CN1CC(F)(F)C1)C(=O)Nc1cccc([C@@H]2c3c(C)nn(-c4ccccc4)c3N(CC)C(=O)[C@H]2NC(=O)c2cccc(C(F)(F)F)c2)c1 (racemic) [Compound I-11]
pIC50 [1, 2]: ≥ 6.70
pIC50 [1, 3]: ≥ 6.70
Emax (DCN1 protein): 80 to 100%

C=C(CN1CCOCC1)C(=O)Nc1ccccc1[C@H]1c2cnn(-c3ccccc3)c2N(CC)C(=O)[C@@H]1NC(=O)c1cccc(C(F)(F)F)c1 (racemic) [Compound I-15]
pIC50 [1, 2]: ≥ 6.70
pIC50 [1, 3]: ≥ 6.70
Emax (DCN1 protein): 80 to 100%

C=C(C)C(=O)Nc1cccc([C@H]2c3c(C)nn(-c4ccccc4)c3N(CC)C(=O)[C@H]2NC(=O)c2cccc(C(F)(F)F)c2)c1 (racemic) [Compound I-17]
pIC50 [1, 2]: < 5.52
IC50 [1, 4]: > 3000 nM
Emax (DCN1 protein): 0 to 30%

CC#CC(=O)Nc1cccc([C@H]2c3c(C)nn(-c4ccccc4)c3N(CC)C(=O)[C@H]2NC(=O)c2cccc(C(F)(F)F)c2)c1 (racemic) [Compound I-19]
pIC50 [1, 2]: < 5.52
IC50 [1, 4]: > 3000 nM
Emax (DCN1 protein): 0 to 30%

CCN1C(=O)[C@H](NC(=O)c2cccc(C(F)(F)F)c2)[C@@H](c2cccc(NS(=O)(=O)CCl)c2)c2c(C)nn(-c3ccccc3)c21 (racemic) [Compound I-209]
Emax (DCN1 protein): 0 to 30%

CCN1C(=O)[C@H](NC(=O)c2cccc(C(F)(F)F)c2)[C@@H](c2ccccc2NC(=O)CCl)c2cnn(-c3ccccc3)c21 [Compound I-178, N-((4S,5R)-4-(2-(2-chloroacetamido)phenyl)-7-ethyl-6-oxo-1-phenyl-4,5,6,7-tetrahydro-1H-pyrazolo[3,4-b]pyridin-5-yl)-3-(trifluoromethyl)benzamide]
% Adduct Formation (MS Emax) (DCN1 protein): + (MS Emax % adduct formation greater than or equal to 0.0 and less than or equal to 30.0)

CCN1C(=O)[C@@H](NC(=O)c2cccc(C(F)(F)F)c2)[C@H](c2ccccc2NC(=O)CCl)c2cnn(-c3ccccc3)c21 [Compound I-197, N-((4R,5S)-4-(2-(2-chloroacetamido)phenyl)-7-ethyl-6-oxo-1-phenyl-4,5,6,7-tetrahydro-1H-pyrazolo[3,4-b]pyridin-5-yl)-3-(trifluoromethyl)benzamide]
Emax (DCN1 protein): 80 to 100%

CCN1C(=O)[C@@H](NC(=O)c2cccc(C(F)(F)F)c2)[C@@H](c2cccc(NC(=O)C3=CCC3)c2)c2c(C)nn(-c3ccccc3)c21 [Compound I-202]
Emax (DCN1 protein): 0 to 30%
